Experimental data as given in patent US20220127568A1, “COMPOSITIONS AND METHODS FOR GENERATING HAIR CELLS BY INHIBITING EPIGENETIC TARGETS” (Frequency Therapeutics, Inc., priority 2019, published 2022).
Entries after “also recorded” stand apart in the source; their conditions may differ. Like-named read-outs stand apart in the source and are kept apart here.

Assays:
[1] = system: Lgr5 GFP+ cochlear progenitor cells; assay: Lgr5+ Assay (Stem Cell Proliferation Assay); type: cell-based
[2] = cited from earlier work; for Human Plasma Conc.: LSD1 inhibitors
[3] = system: Lgr5+ cochlear progenitor cells; assay: Quantification of Lgr5+ cochlear progenitor cell proliferation, expansion and enrichment (3D Matrigel culture, Celigo imaging, GFP(+) cell area); type: cell-based, mouse; conditions: for proliferation or enrichment of cochlear progenitor cells: inhibitor alone
[4] = EZH2 inhibitors, active concentration range, <= is the upper end of a wrapped range
[5] = EZH2 inhibitors, <= is the upper end of a wrapped range
[6] = in combination with Wnt agonist CHIR99021
[7] = active concentration of LSD1 inhibitor, >= is the lower end of a range wrapped over two lines

## O=C(N/N=C/c1c(O)ccc2ccccc12)c1ccncc1 [AS 8351]
[1]; FIG. 37A: 2 μM AS 8351 + 3 μM CHIR99021 + 1 mM VPA in EFI vs EFI-C, EFI-CV
  Lgr5 GFP(+) cell count: further enhances Lgr5 GFP+ progenitor cell proliferation
[1]; FIG. 37B: 2 μM AS 8351 + 3 μM CHIR99021 + 1 mM VPA in EFI vs EFI-C, EFI-CV
  Lgr5 GFP(+) cell proliferation percentage: further enhances enrichment
[1]; KDM inhibitors, active concentration range
  Lgr5+ Assay: 1 to 3 µM
[2]; KDM inhibitors
  Human In Vivo Conc: 1000 to 3000 µM

## CCS(=O)(=O)N1CCC(C(C)n2c(C)c(C(=O)NCc3c(OC)cc(C)[nH]c3=O)c3ccccc32)CC1 (stereo not shown) [CPI-169]
[1]; [4]
  Lgr5+ Assay: 0.1 to 10 µM
[1]; FIG. 11A: 1.11 μM CPI-169 + 4 μM CHIR99021 in EFI vs EFI-C, EFI-CV
  Lgr5 GFP(+) cell count: enhances Lgr5 GFP+ progenitor cell proliferation
[1]; FIG. 33A: 1.11 μM CPI-169 + 4 μM CHIR99021 in EFI vs CHIR alone
  Lgr5 GFP(+) cell area: enhances Lgr5 GFP+ progenitor cell proliferation
[1]; FIG. 33B: 1.11 μM CPI-169 + 4 μM CHIR99021 in EFI vs CHIR alone
  Lgr5 GFP(+) cell area percentage: enhances enrichment
[2]; [5]
  Human In Vivo Conc: 1 to 10 µM

## COc1cc(C)[nH]c(=O)c1CNC(=O)c1c(C)n([C@H](C)C2CCOCC2)c2ccccc12 [CPI-360]
[1]; [4]
  Lgr5+ Assay: 0.1 to 10 µM
[1]; FIG. 12A: 0-30 μM CPI-360 alone in EFI
  Lgr5 GFP(+) cell area: does not proliferate
[1]; FIG. 12B: 0-30 μM CPI-360 alone in EFI
  Lgr5 GFP(+) cell area percentage: does not enrich
[1]; FIG. 13A-16A: 3.33 μM CPI-360 + 4 μM CHIR99021 in EFI vs CHIR alone
  Lgr5 GFP(+) cell area: enhances Lgr5 GFP+ progenitor cell proliferation; also recorded: enhances Lgr5 GIP+ progenitor cell proliferation
[1]; FIG. 13B-16B: 3.33 μM CPI-360 + 4 μM CHIR99021 in EFI vs CHIR alone
  Lgr5 GFP(+) cell area percentage: enhances enrichment
[2]; [5]
  Human In Vivo Conc: 1 to 10 µM

## COc1cc(C)[nH]c(=O)c1CNC(=O)c1c(C)n([C@H](C)C2CCN(CC(F)(F)F)CC2)c2ccccc12 [CPI-1205]
[1]; [4]
  Lgr5+ Assay: ≤ 30 µM
[1]; EZH2 inhibitors, lower end of active range wrapped over two lines
  Lgr5+ Assay: ≥ 100 nM-
[1]; FIG. 17A: 0-30 μM CPI-1205 alone in EFI
  Lgr5 GFP(+) cell area: does not proliferate
[1]; FIG. 17B: 0-30 μM CPI-1205 alone in EFI
  enrichment of Lgr5 GFP+ cells (y-axis: Lgr5 GFP(+) cell area): does not enrich
[1]; FIG. 18A, 19A: 3.33 μM CPI-1205 + 4 μM CHIR99021 in EFI vs CHIR alone
  Lgr5 GFP(+) cell area: enhances Lgr5 GFP+ progenitor cell proliferation
[1]; FIG. 18B, 19B: 3.33 μM CPI-1205 + 4 μM CHIR99021 in EFI vs CHIR alone
  Lgr5 GFP(+) cell area percentage: enhances enrichment
[3]; [6]
  Lgr5+ progenitor cell proliferation and enrichment: enhanced Lgr5+ progenitor cell proliferation and enrichment
[3]
  proliferation or enrichment of cochlear progenitor cells: does not promote the proliferation or enrichment
[2]; [5]
  Human In Vivo Conc: 25 to 250 µM

## CC(C)N(CCCNC(=O)Nc1ccc(C(C)(C)C)cc1)C[C@H]1O[C@@H](n2ccc3c(N)ncnc32)[C@H](O)[C@@H]1O [EPZ004777]
[1]; DOT1L inhibitors, active concentration range
  Lgr5+ Assay: 0.6-45 μm μM
[1]; FIG. 34A: 15 μM EPZ004777 + 3 μM CHIR99021 in EFI vs EFI-C, EFI-CV
  Lgr5 GFP(+) cell count: enhances Lgr5 GFP+ progenitor cell proliferation
[1]; FIG. 34B: 15 μM EPZ004777 + 3 μM CHIR99021 in EFI vs EFI-C, EFI-CV
  Lgr5 GFP(+) cell proliferation percentage: enhances enrichment
[3]; combined with CHIR99021, compared to CHIR99021 alone
  Lgr5+ progenitor cell proliferation and enrichment: proliferation and enrichment are enhanced
[2]; DOT1L inhibitors
  Human In Vivo Conc: 0.1-45 uM μM

## CCN(c1cc(C#CCN2CCOCC2)cc(C(=O)NCc2c(C)cc(C)[nH]c2=O)c1C)[C@H]1CC[C@H](N(C)CCOC)CC1 [EPZ011989]
[1]; FIG. 25A: 0-10 μM EPZ011989 alone in EFI
  Lgr5 GFP(+) cell area: does not proliferate
[1]; FIG. 25B: 0-10 μM EPZ011989 alone in EFI
  enrichment of Lgr5 GFP+ cells (y-axis: Lgr5 GFP(+) cell area): does not enrich
[1]; FIG. 26A-29A: 123 nM EPZ011989 + 4 uM CHIR99021 in EFI vs CHIR alone
  Lgr5 GFP(+) cell area: enhances Lgr5 GFP+ progenitor cell proliferation
[1]; FIG. 26B-29B: 123 nM EPZ011989 + 4 uM CHIR99021 in EFI vs CHIR alone
  Lgr5 GFP(+) cell area percentage: enhances enrichment
[3]
  proliferation or enrichment of cochlear progenitor cells: does not promote proliferation or enrichment

## O=C(O)c1ccc(CN2CCC(CN[C@@H]3C[C@H]3c3ccccc3)CC2)cc1 [GSK2879552]
[1]; FIG. 4A: 370 nM GSK2879552 + 4 μM CHIR99021 + 1 mM VPA in EFI vs EFI-C, EFI-CV
  Lgr5 GFP(+) cell count: enhances Lgr5 GFP+ progenitor cell proliferation
[1]; FIG. 4B: 370 nM GSK2879552 + 4 μM CHIR99021 + 1 mM VPA in EFI vs EFI-C, EFI-CV
  Lgr5 GFP(+) cell proliferation percentage: enhances enrichment
[3]; inhibitor 370 nM with CHIR99021 (4 μM) and VPA (1 mM)
  Lgr5+ progenitor cell proliferation and enrichment: proliferation and enrichment are enhanced

## c1ccc([C@@H]2C[C@H]2NC2CCNCC2)cc1 [GSK-LSD1]
[1]; FIG. 5A: 4.5 nM GSK-LSD1 + 4 μM CHIR99021 + 1 mM VPA in EFI vs EFI-C, EFI-CV
  Lgr5 GFP(+) cell count: enhances Lgr5 GFP+ progenitor cell proliferation
[1]; FIG. 5B: 4.5 nM GSK-LSD1 + 4 μM CHIR99021 + 1 mM VPA in EFI vs EFI-C, EFI-CV
  Lgr5 GFP(+) cell proliferation percentage: enhances enrichment
[1]; [7]
  Lgr5+ Assay: ≥ 4 nM-
[2]
  Human Plasma Conc.: 1 to 100 nM

## CC(=O)O.Cc1cc(C)c(CN2CCc3c(Cl)cc(-c4c(C)noc4C)c(Cl)c3C2=O)c(=O)[nH]1 [PF 06726304 acetate]
[1]; FIG. 20A: 0-90 μM PF 06726304 acetate alone in EFI
  Lgr5 GFP(+) cell area: does not proliferate
[1]; FIG. 20B: 0-90 μM PF 06726304 acetate alone in EFI
  enrichment of Lgr5 GFP+ cells (y-axis: Lgr5 GFP(+) cell area): does not enrich
[1]; FIG. 21A, 22A: 370 nM PF 06726304 acetate + 4 μM CHIR99021 in EFI vs CHIR alone
  Lgr5 GFP(+) cell area: enhances Lgr5 GFP+ progenitor cell proliferation
[1]; FIG. 21B, 22B: 370 nM PF 06726304 acetate + 4 μM CHIR99021 in EFI vs CHIR alone
  Lgr5 GFP(+) cell area percentage: enhances enrichment
[3]; in combination with CHIR99021 (FIG. 23, FIG. 24)
  Lgr5+ progenitor cell enrichment: enriched
[3]
  proliferation or enrichment of cochlear progenitor cells: does not promote the proliferation or enrichment

## CN1CCN(C(=O)CN[C@H]2C[C@@H]2c2ccc(OCc3ccccc3)cc2)CC1.Cl.Cl [RN-1 HCl]
[1]; FIG. 38A: 0-30 μM RN-1 HCl alone in EFI vs EFI-C, EFI-CV, EFI-CVT (7 μM tranylcypromine)
  Lgr5 GFP(+) cell count: does not proliferate
[1]; FIG. 38B: 0-30 μM RN-1 HCl alone in EFI vs EFI-C, EFI-CV, EFI-CVT
  enrichment of Lgr5 GFP+ cells (y-axis: Lgr5 GFP(+) cell count): does not enrich
[1]; FIG. 39A: 41 nM RN-1 + 4 μM CHIR99021 + 1 mM VPA in EFI vs EFI-C, EFI-CV, EFI-CVT
  Lgr5 GFP(+) cell count: further enhances Lgr5 GFP+ progenitor cell proliferation
[1]; FIG. 39B: 41 nM RN-1 + 4 μM CHIR99021 + 1 mM VPA in EFI vs EFI-C, EFI-CV, EFI-CVT
  enrichment of Lgr5 GFP+ cells (y-axis: Lgr5 GFP(+) cell count): enhances enrichment
[3]
  proliferation or enrichment of cochlear progenitor cells: does not promote the proliferation or enrichment

## CN1CCN(C(=O)CN[C@H]2C[C@@H]2c2ccc(OCc3ccccc3)cc2)CC1.Cl.Cl [RN-1]
[1]; [7]
  Lgr5+ Assay: 0.041 µM
[2]
  Human Plasma Conc.: 1 to 100 nM

## CC(C)N(CCCNC(=O)Nc1ccc(C(C)(C)C)cc1)C[C@H]1O[C@@H](n2cc(Br)c3c(N)ncnc32)[C@H](O)[C@@H]1O [SGC0946]
[1]; FIG. 35A: […] SGC0946 + 3 μM CHIR99021 in EFI vs EFI-C, EFI-CV
  Lgr5 GFP(+) cell count: enhances Lgr5 GFP+ progenitor cell proliferation
[1]; FIG. 35B: […] SGC0946 + 3 μM CHIR99021 in EFI vs EFI-C, EFI-CV
  Lgr5 GFP(+) cell proliferation percentage: enhances enrichment
[3]; [6]
  Lgr5+ progenitor cell proliferation and enrichment: proliferation and enrichment are enhanced
[2]; DOT1L inhibitors
  Human In Vivo Conc: 0.1 to 5 µM

## NC1CC1c1ccccc1 (stereo not shown) [TCP]
[1]; active concentration of LSD1 inhibitor, <= is the upper end of a range wrapped over two lines
  Lgr5+ Assay: 0.1 to 20 µM
[2]; human plasma Cmax, >= and <= are the ends of a wrapped range
  Human Plasma Conc. Cmax: 30 to 200 ng/mL
[2]; human plasma Cmax, read-out: Human Plasma Conc. Cmax (molar, in brackets)
  Cmax: 225 to 1500 nM

## CCN(c1cc(-c2ccc(CN3CCOCC3)cc2)cc(C(=O)NCc2c(C)cc(C)[nH]c2=O)c1C)C1CCOCC1 [tazemetostat]
[1]; [4]
  Lgr5+ Assay: 0.1 to 10 µM
[2]; EZH2 inhibitors, >= is the lower end of a wrapped range
  Human In Vivo Conc: (200-1600 nM)
[2]; EZH2 inhibitors
  Human In Vivo Conc: 100 to 800 ng/mL

## N[C@@H]1C[C@H]1c1ccccc1 [tranylcypromine]
[1]; FIG. 1A: 0-10 μM tranylcypromine alone in growth factors (EFI, 50 ng/mL each) vs EFI + 4 μM CHIR99021 (EFI-C) or + 1 mM VPA (EFI-CV)
  Lgr5 GFP(+) cell count: does not proliferate
[1]; FIG. 1B: 0-10 μM tranylcypromine alone in EFI vs EFI-C, EFI-CV
  Lgr5 GFP(+) cell proliferation percentage: does not enrich
[1]; FIG. 2A: 2 μM tranylcypromine + 4 μM CHIR99021 in EFI vs EFI-C, EFI-CV
  Lgr5 GFP(+) cell count: enhances Lgr5 GFP+ progenitor cell proliferation
[1]; FIG. 2B: 2 μM tranylcypromine + 4 μM CHIR99021 in EFI vs EFI-C, EFI-CV
  Lgr5 GFP(+) cell proliferation percentage: enhances enrichment
[1]; FIG. 3A: 4 μM tranylcypromine + 4 μM CHIR99021 + 1 mM VPA in EFI vs EFI-CV
  Lgr5 GFP(+) cell count: enhances Lgr5 GFP+ progenitor cell proliferation
[1]; FIG. 3B: 4 μM tranylcypromine + 4 μM CHIR99021 + 1 mM VPA in EFI vs EFI-CV
  Lgr5 GFP(+) cell proliferation percentage: enhances enrichment
[3]; combined with CHIR99021 (4 μM) and VPA (1 mM)
  Lgr5+ progenitor cell proliferation and enrichment: proliferate and are enriched
[3]; combined with Wnt agonist CHIR99021 (4 μM)
  Lgr5+ progenitor cell proliferation and enrichment: proliferate and are enriched
[3]
  proliferation or enrichment of cochlear progenitor cells: does not promote the proliferation or enrichment
